Assay results published in patent US11092602B2, “Methods and compositions relating to proteasome inhibitor resistance” (Whitehead Institute for Biomedical Research, priority 2015, dated 2021).
“Also recorded” adds a separate entry of the source.

Tests used:
[1] = test system: protein degradation and protein synthesis; assay: Translation and degradation assays (3H-phenylalanine); assay type: cell-based, human; conditions: 10 nM bortezomib
Experimental: Next we examined the impact of reducing PSMD2 levels on protein degradation and protein synthesis. Cells were labeled with tritiated-phenylalanine for 24 hrs. We then separately measured the rates at which labeled proteins were degraded through the proteasome and through the lysosome.
To measure rates of protein synthesis, cells were pulse labeled with tritiated-phenylalanine for 1 hr.
For measuring overall rate of synthesis, cells were pretreated with 10 nM Bortezomib for 20 hours, then incorporation of ^3H-phenylalanine was measured for 1 h. The rate of synthesis was described as counts incorporated into cell proteins per hour and per μg of total cell proteins. When working with T47D cells, knockdown of PSMD2 was induced for 3 days with doxycycline before bortezomib treatment. For measuring overall rates of protein degradation, pulse-labeling with ^3H-phenylalanine for 24 hours was done before the bortezomib treatment as previously described (Zhao et al., 2007).

T47D cells [2] = assay: Competition co-culture of shPSMD2-RFP and shControl-GFP T47D cells, FACS and microscopy; assay type: cell-based, human; conditions: 48 hours
Experimental: We created two cell lines—one line that expresses red fluorescent protein (turboRFP) and the doxycycline-inducible PSMD2-targeting shRNA and another line that expresses green fluorescent protein (GFP) and a doxycycline-inducible control shRNA (FIG. 6A). First, we induced shRNA expression with doxycycline for 48 hours. After recovery, we mixed shPSMD2-RFP and shControl-GFP cells at different ratios (either 1:1, 1:2, 1:5 or 1:10), adding the cells with reduced PSMD2 as the minority subpopulation. Twenty-four hours after plating, we treated these mixed populations of cells for 48 hours with increasing concentrations of bortezomib (5, 7.5 or 10 nM). We allowed the cells to recover in the absence of bortezomib and then we quantified the red and green cells by FACS analysis (FIG. 6A) and captured representative images by fluorescence microscopy (FIG. 6B).
The experiment described in Example 10 was repeated with minor differences using a panel of different proteasome inhibitors: MLN2238, MLN9708, and oprozomib T47D cells harboring a doxycycline inducible control shRNA (GFP) or a doxycycline-inducible PSMD2 shRNA (TurboRFP) were incubated with doxycycline for 3 days. Cells were collected, counted, and plated at a 1:10 ratio of TurboRFP-expressing PSMD2 shRNA cells/GFP expression control shRNA cells in the absence of Dox. Proteasome inhibitors were added at the specified concentrations and cells were maintained in culture. Cells were allowed to recover in the absence of the proteasome inhibitor and then analyzed by FACS (FIG. 8B, top) or visualized by microscopy (FIG. 8B, bottom). In the absence of proteasome inhibitors, the initial plating ratio of these cells (1:10) was maintained over the duration of the experiment (FIG. 8B). […] The effect was concentration-dependent in that higher concentrations elicited more substantial shifts.
cells were trypsinized in 100 μL Accumax® solution and further diluted into 100 μl PBSx1. The number of cells with red or green fluorescent proteins was measured by MACSQuant® VYB according to manufactures protocol. Images of RFP and GFP were created by overlaying images using Fiji software.

20S proteasome = 20S proteasome (Homo sapiens, UniProt P28074); assay: Native gel analysis of proteasomal complexes with Suc-LLVY-AMC substrate overlay; assay type: biochemical; conditions: 12 nM bortezomib for 24 hours
Excerpt: We first separated 20S and 26S proteasomes on native gels and examined effects on the relative levels of 26S and 20S proteasome complexes. In cells with reduced levels of either PSMC5 or PSMD2, 26S proteasome complexes were reduced and 20S proteasome complexes were increased (FIGS. 2E and 2F). These changes persisted in the presence of bortezomib (FIGS. 2E and 2F). Next, we assayed their activity with a fluorescently labeled substrate.
Proteasomal samples were loaded on a nondenaturing 4% polyacrylamide gel using the protocol described previously (Tsvetkov et al., 2014). Gels were either overlaid with Suc-LLVY-AMC (50 μM) for assessment of proteasomal activity or transferred to nitrocellulose membranes where immunoblotting specific for proteasomal subunits was conducted. Proteasomal activity was assessed by measuring the hydrolysis of Suc-LLVY-AMC by substrate overlay assays in native polyacrylamide gels with 50 mM Tris-HCl, pH 7.8, 5 mM MgCl2, 1 mM DTT, 2 mM ATP, 50 μM Suc-LLVY-AMC peptide, and incubating the gels at 37° C. for 30-60 min. Activity was visualized by transilluminated by a UV light and photographed with BIORAD Chemidoc imaging system.

T47D cells [3] = assay: Cell viability of T47D cells with doxycycline-inducible PSMD2 shRNA; assay type: cell-based, human
Experimental: T47D cells harboring a doxycycline inducible control shRNA (GFP) or a doxycycline-inducible PSMD2 shRNA (TurboRFP) were incubated with doxycycline for 3 days. Cells were then split and grown in the absence of Dox and proteasome inhibitors were then added at various concentrations. Cells were maintained in culture and then counted.
For the generation of the T47D Tet-inducible PSMD2 knockdown cell line—the TRIPZ vector with an inducible shRNA targeting PSMD2 was purchased from Dharmacon (clone V3THS_403760). It was introduced to the T47D cells according to manufactures protocol and cells were selected with puromycin 1 μg/ml for one week. The cells were exposed to doxycycline for 24 hours and cells were FACS sorted for the top 10% of most RFP expressing cells (highest expression of shRNA). The cells were further cultured in the absence of doxycycline and PSMD2 knockdown was induced as specified in the relevant Examples.
Relative cell growth and survival were measured in 96-well microplate format in the shRNA experiments and in 384 well format in the drug toxicity assays, by using the fluorescent detection of resazurin dye reduction as an endpoint (544 nm excitation and 590 nm emission). 2,500 cells in 96 wells format or 1,000 cells in 384 well format were plated 24 hours before compound exposure (for 72 hours or indicated time). Each analysis was performed at least with three replicas.

[4] = test system: relapsed multiple myeloma; assay: Phase 2 and 3 clinical trials of bortezomib in relapsed multiple myeloma, stratified by sigma score; assay type: in vivo, human
Excerpt: We analyzed gene expression data from 135 patients with relapsed multiple myeloma who participated in Phase II or III trials of bortezomib (˜2007; Mulligan, G., Mitsiades, et al. (2007) Gene expression profiling and correlation with outcome in clinical trials of the proteasome inhibitor bortezomib. Blood 109, 3177-3188) and determined the sigma score for each cancer. The sigma score for each cancer (prior to treatment) was computed by comparing the expression of each 19S subunit (except PSMC4, which was not included in the analysis for technical reasons) in each cancer with the average expression of that subunit in the total set of cancers (reference level) and determining the number of standard deviations by which each expression level differed from the reference level.
Methods details: re-treatment gene expression data from relapsed multiple myeloma patients undergoing clinical trials with bortezomib were downloaded from GSE9782 (34). Gene expression data was RMA normalized and log transformed. Sigma scores were calculated from all probes. […] For each group, the time to relapse from bortezomib treatment was plotted as a Kaplan-Meier plot. P-value was calculated using Wilcoxon test.

T47D cells [5] = assay: Selleck anti-cancer compound library screen, PSMD2 KD versus control T47D cells (resazurin); assay type: cell-based, human; conditions: 4 concentrations, 72 hours
Experimental: After 48 hours the cells were collected, counted, and plated at 1000 cells/well in 384 well plates in duplicates for each cell line. Compounds from the Selleck Chemicals anti-cancer compound library β49 drugs in 4 concentrations; […]) were pinned the next day and viability was measured after 72 hours by the reduction of Resazurin (Ex=530 nm, Em=590 nm).
The effect of each drug on viability of cells was calculated by averaging the duplicate experiments. The data is plotted in FIG. 16 as the log2 of the ratio of viability of PSMD2 KD versus control cells (log2 (shPSMD2/Control)).

β5-subunit = β5-subunit (Homo sapiens, UniProt P28074); conditions: cited from earlier work
[6] = cells with transiently reduced PSMD2, 20 hours

## CC(C)C[C@H](NC(=O)[C@H](Cc1ccccc1)NC(=O)c1cnccn1)B(O)O [bortezomib]
[1]; 20-hour treatment
  rates of proteolysis by the lysosome: remained unchanged
[1]; [6]
  inhibition of proteasome degradation: strongly counteracted
  suppression of protein synthesis: strongly counteracted
[1]; control cells, 20-hour treatment
  rate of protein degradation: sharply decreased
[1]; control cells, 20 hours
  rate of protein synthesis: sharply decreased
T47D cells [2]; 5 nM, ratios 1:1, 1:2, 1:5, 1:10
  shift of surviving cell populations towards shPSMD2-RFP cells: substantially shifted the populations of surviving cells
T47D cells [2]; 7.5 nM and 10 nM
  shift of surviving cell populations towards shPSMD2-RFP cells: even more substantial shifts
20S proteasome; cells with reduced PSMC5 or PSMD2
  20S proteasome activity: maintained a significant level of 20S proteasome activity
20S proteasome; control cells
  20S proteasome function: nearly complete inactivation of 20S proteasome function
T47D cells [3]; PSMD2 shRNA versus control
  resistance upon doxycycline-induced reduction of PSMD2: significantly increased resistance; also recorded: increase in resistance
T47D cells [3]; doxycycline 3 days, 96 hour culture
  resistance of cells harboring the PSMD2 shRNA versus parental line (EC50): considerably more resistant
[4]; 34 patients with reduced expression of at least one 19S subunit versus patients without, p-value=0.0086
  time to progression: shortened time to progression
[4]; patients with 3-Sigma disease versus sigma score less than 3
  progression-free survival: Reduced Progression-Free Survival
[4]; patients with reduced expression of 19S proteasome subunit(s)
  effectiveness over dexamethasone control: no significant effectiveness over the dexamethasone control
T47D cells [5]
  selective effect on viability, PSMD2 KD versus control cells (log2 (shPSMD2/Control)): selectively reduce viability of control cells versus PSMD2 KD cells
β5-subunit
  potency of inhibition of the β5-subunit: low nanomolar
